Source: US20260317324A1, “BIFUNCTIONAL COMPOUNDS FOR DEGRADING BRAF VIA UBIQUITIN PROTEOSOME PATHWAY” (Nurix Therapeutics, Inc., priority 2023, published 2026)

Columns and labels:
Type in all cases: cell-based
BRAF G466V = biological target: T1, BRAF G466V (Homo sapiens, UniProt P15056, G466V); assay: BRAF HiBiT degradation assay, C-terminal HiBiT-tagged BRAF G466V overexpressed in HCT-116 BRAF−/− cells (clone 8), Nano-Glo HiBiT Lytic assay
T1 construct: Horizon Discovery (HCT-116 BRAF−/− cells); host or cells: HCT-116 BRAF−/− cells, clone 8, lentiviral transduction
T1 sequence (P15056 whole entry G466V): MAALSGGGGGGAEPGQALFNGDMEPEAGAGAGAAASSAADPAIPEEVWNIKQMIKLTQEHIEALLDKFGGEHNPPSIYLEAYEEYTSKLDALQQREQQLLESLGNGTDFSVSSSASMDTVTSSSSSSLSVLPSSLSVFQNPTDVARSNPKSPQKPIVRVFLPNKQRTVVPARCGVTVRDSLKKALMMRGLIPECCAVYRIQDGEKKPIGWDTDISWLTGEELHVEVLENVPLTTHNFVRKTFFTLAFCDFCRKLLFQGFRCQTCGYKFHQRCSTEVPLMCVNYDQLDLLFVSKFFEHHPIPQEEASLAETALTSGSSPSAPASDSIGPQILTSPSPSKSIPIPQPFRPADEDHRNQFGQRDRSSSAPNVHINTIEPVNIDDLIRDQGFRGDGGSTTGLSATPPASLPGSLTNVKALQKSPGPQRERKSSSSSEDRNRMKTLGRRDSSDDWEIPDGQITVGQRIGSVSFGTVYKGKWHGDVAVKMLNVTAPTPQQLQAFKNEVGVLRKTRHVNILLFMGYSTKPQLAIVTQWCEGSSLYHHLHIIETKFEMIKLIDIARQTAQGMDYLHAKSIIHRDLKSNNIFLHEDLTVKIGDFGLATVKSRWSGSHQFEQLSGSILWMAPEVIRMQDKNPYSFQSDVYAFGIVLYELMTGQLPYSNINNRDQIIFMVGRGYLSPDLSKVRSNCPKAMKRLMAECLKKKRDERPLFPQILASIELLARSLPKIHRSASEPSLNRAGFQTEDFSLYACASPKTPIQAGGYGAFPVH
Description: (§1) An A375 cell line expressing a homozygous V600E mutation was purchased from ATCC (Manassas, VA, USA). An A375 clone 1F10 cell line with an endogenous C-terminal HiBiT fusion tag on BRAF V600E allele was generated internally using CRISPR-Cas9 technology and cultured in DMEM, high glucose supplemented with 10% FBS and 1× GlutaMAX. A HCT-116 BRAF−/− cell line overexpressing the C-terminal HiBiT-tagged G466V, G469A, and D594G mutants were generated by lentiviral transduction, externally at Biosettia Inc (San Diego, CA, USA). The stably transfected cells were cultured in RPMI media supplemented with 10% FBS, 1× GlutaMAX, and 0.25 μg/ml puromycin. DMEM medium, RPMI 1640 medium, GlutaMAX, fetal bovine serum (FBS), and puromycin were purchased from Gibco (Grand Island, NY, USA). HCT-116 BRAF−/− cells were purchased from Horizon Discovery (Waterbeach, UK).
(§2) The C-terminal HiBiT tagged mutant BRAF G466V, G469A, and D594G overexpressed in HCT-116 BRAF−/− cells (monoclonal cell line, cell clones 8, 34, and 63, respectively) were seeded at the density of 3,000 cells/well in 30 μL media (RPMI supplemented with 10% FBS and 1× GlutaMAX) in white opaque 384-well plates (Corning #3570) from column 1 to column 23. Wildtype HCT-116 BRAF cells were seeded in column 24 at the same cell density in 30 μL media. Cells were incubated at 37° C. with 5% CO2 for 24 h.
(§3) Intermediate compound dilution series (5-point, ranging from 5 mM to 0.5 μM, 10-fold dilutions in DMSO) were prepared in a source plate (Beckman Coulter cat. no. 001-16128). Final compound dilution series (11-point, ranging from 1 μM to 0.01 nM, half-log dilutions in DMSO) were stamped into the assay plate (Corning #3570, column 1-11 and 12-22) using the Echo Acoustic Liquid Handler (Beckman Coulter). Each compound was plated in duplicate, and the total volume of compound DMSO solution was 60 nL/well (0.2% final DMSO concentration). DMSO was included in wells A23-L23 and A24-L24. The DMSO-treated HiBiT-tagged samples served as Negative Control (NC) and the DMSO-treated wildtype samples served as Background Control (BC) for the HiBiT assay.
(§4) HiBiT signal was measured by a Nano-Glo HiBiT Lytic assay (Promega cat. no. N3050). HiBiT lytic detection reagent (Nano-Glo HiBiT Lytic Buffer with 1:50 Nano-Glo HiBiT Lytic Substrate and 1:100 LgBiT Protein, 40 μL) was added using Bravo. The mixture was incubated at room temperature, in the dark, and with gentle shaking for 10 min. Luminesce units (LU) were read on an EnVision plate reader 2105 (Perkin Elmer).
(§5) Percent protein remaining and viability remaining per sample were calculated as follows: […]
(§6) % Protein remaining values were plotted as a function of compound concentration. XC50 (DC50) values were determined by fitting curves using the following equation:
(§7) For the HiBiT degradation assay, the key parameters reported include: • The dose of compound that produces 50% degradation (DC50 at 50%): • DC50 at 50%: the Fitted X value (Conc.) at Y=50 (response) • Observed Dmax (Obs. Dmax) is the percentage protein degraded at maximal compound effect relative to DMSO-treated control: […]

BRAF V600E = biological target: T2, BRAF V600E (Homo sapiens, UniProt P15056, V600E); assay: BRAF HiBiT degradation assay, C-terminal HiBiT-tagged BRAF V600E A375 cells (clone 1F10), Nano-Glo HiBiT Lytic assay; conditions: for Dmax: A-375
T2 construct: endogenous C-terminal HiBiT fusion tag on BRAF V600E allele; endogenous in cells; host or cells: A375 clone 1F10 (CRISPR-Cas9 knock-in of the HiBiT tag; parental A375 from ATCC)
T2 sequence (P15056 whole entry V600E, the tested form may be a part): as the sequence (P15056 whole entry G466V) above, with V466G, V600E counted along it
Procedure, shortened: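 Luminescence read-out: Nano-Glo HiBiT lytic reagent with LgBiT, 10 min at room temperature. Signal normalised to DMSO-treated tagged cells, with wildtype A375 as background. Cells are endogenously tagged BRAF V600E A375 clone 1F10. Compounds were tested from 1 μM to 0.01 nM; Dmax is observed % degraded at maximal effect.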

BRAF D594G = biological target: T3, BRAF D594G (Homo sapiens, UniProt P15056, D594G); assay: BRAF HiBiT degradation assay, C-terminal HiBiT-tagged BRAF D594G overexpressed in HCT-116 BRAF−/− cells (clone 63), Nano-Glo HiBiT Lytic assay
T3 construct: Horizon Discovery (HCT-116 BRAF−/− cells); host or cells: HCT-116 BRAF−/− cells, clone 63, lentiviral transduction
T3 sequence (P15056 whole entry D594G): as the sequence (P15056 whole entry G466V) above, with V466G, D594G counted along it
Description: as §1, §2, §3, §4, §5, §6, §7

BRAF G469A = biological target: T4, BRAF G469A (Homo sapiens, UniProt P15056, G469A); assay: BRAF HiBiT degradation assay, C-terminal HiBiT-tagged BRAF G469A overexpressed in HCT-116 BRAF−/− cells (clone 34), Nano-Glo HiBiT Lytic assay
T4 construct: Horizon Discovery (HCT-116 BRAF−/− cells); host or cells: HCT-116 BRAF−/− cells, clone 34, lentiviral transduction
T4 sequence (P15056 whole entry G469A): as the sequence (P15056 whole entry G466V) above, with V466G, G469A counted along it
Description: as §1, §2, §3, §4, §5, §6, §7

[1] = BRAF G466V, DC50 at 50%: fitted conc. at Y=50
[2] = HCT-116, BRAF G466V, percentage protein degraded at maximal compound effect relative to DMSO
[3] = A375 (BRAF V600E), DC50 at 50%: fitted conc. at Y=50
[4] = A375 (BRAF V600E), percentage protein degraded at maximal compound effect relative to DMSO
[5] = BRAF D594G, DC50 at 50%: fitted conc. at Y=50
[6] = HCT-116, BRAF D594G, percentage protein degraded at maximal compound effect relative to DMSO
[7] = Class 2, BRAF G469A, DC50 at 50%: fitted conc. at Y=50
[8] = HCT-116, Class 2, BRAF G469A, percentage protein degraded at maximal compound effect relative to DMSO
[9] = BRAF G466V (Class 3), HCT-116 BRAF−/− cells, DC50 at 50% degradation
[10] = BRAF G466V (Class 3), HCT-116 BRAF−/− cells, observed Dmax relative to DMSO control
[11] = A375 (BRAF V600E, Class 1), DC50 at 50% degradation
[12] = A375 (BRAF V600E, Class 1), observed Dmax, % protein degraded relative to DMSO control
[13] = BRAF D594G (Class 3), HCT-116 BRAF−/− cells, DC50 at 50% degradation
[14] = BRAF D594G (Class 3), HCT-116 BRAF−/− cells, observed Dmax relative to DMSO control
[15] = BRAF G469A (Class 2), HCT-116 BRAF−/− cells, DC50 at 50% degradation
[16] = BRAF G469A (Class 2), HCT-116 BRAF−/− cells, observed Dmax relative to DMSO control

Row | Compound | DC50 (BRAF G466V; [1]) [nM] | Dmax (BRAF G466V; [2]) [%] | DC50 (BRAF V600E; [3]) [nM] | Dmax (BRAF V600E; [4]) [%] | DC50 (BRAF D594G; [5]) [nM] | Dmax (BRAF D594G; [6]) [%] | DC50 (BRAF G469A; [7]) [nM] | Dmax (BRAF G469A; [8]) [%] | DC50 (BRAF G466V; [9]) [nM] | Dmax (BRAF G466V; [10]) [%] | DC50 (BRAF V600E; [11]) [nM] | Dmax (BRAF V600E; [12]) [%] | DC50 (BRAF D594G; [13]) [nM] | Dmax (BRAF D594G; [14]) [%] | DC50 (BRAF G469A; [15]) [nM] | Dmax (BRAF G469A; [16]) [%]
1 | CCCS(=O)(=O)Nc1cccc(-c2nc(C(C)(C)C)sc2-c2ccnc(Nc3cnn(CC4CCN(C(=O)[C@H]5CC[C@H](Oc6ccc(C7CCC(=O)NC7=O)cc6)CC5)CC4)c3)n2)c1F (mixture of isomers) [Compound 118, N-{3-[2-tert-butyl-5-(2-{[1-({1-[(1r,4r)-4-{4-[(3RS)-2,6-dioxopiperidin-3-yl]phenoxy}cyclohexanecarbonyl]piperidin-4-yl}methyl)-1H-pyrazol-4-yl]amino}pyrimidin-4-yl)-1,3-thiazol-4-yl]-2-fluorophenyl}propane-1-sulfonamide] | > 500 | < 30 | < 10 | > 70 | > 500 | 30 to 70 | > 500 | < 30 | – | – | – | – | – | – | – | –
2 | O=C1CCC(c2ccc(N3CCC(CN4CCN(c5ccc(-n6cc(-c7cc(F)cc(NS(=O)(=O)N8CC[C@@H](F)C8)c7F)c(-c7ccncc7)n6)nc5)CC4)CC3)nc2)C(=O)N1 (mixture of isomers) [Compound 304, (3R)—N-{3-[1-(5-{4-[(1-{5-[(3RS)-2,6-dioxopiperidin-3-yl]pyridin-2-yl}piperidin-4-yl)methyl]piperazin-1-yl}pyridin-2-yl)-3-(pyridin-4-yl)-1H-pyrazol-4-yl]-2,5-difluorophenyl}-3-fluoropyrrolidine-1-sulfonamide] | – | – | – | – | – | – | – | – | < 10 | > 70 | < 10 | > 70 | < 10 | > 70 | 10 to 50 | > 70
3 | CCN(C)S(=O)(=O)Nc1cccc(-c2nc(C(C)(C)C)sc2-c2ccnc(Nc3ccc(N4CCN(C(=O)[C@H]5CC[C@H](CN6CCc7cc(C8CCC(=O)NC8=O)ccc7C6)CC5)CC4)cn3)n2)c1F (mixture of isomers) [Compound 125, Rac-(3S)-3-(2-{[(1r,4r)-4-{4-[6-({4-[2-tert-butyl-4-(3-{[ethyl(methyl)sulfamoyl]amino}-2-fluorophenyl)-1,3-thiazol-5-yl]pyrimidin-2-yl}amino)pyridin-3-yl]piperazine-1-carbonyl}cyclohexyl]methyl}-1,2,3,4-tetrahydroisoquinolin-6-yl)piperidine-2,6-dione] | > 500 | < 30 | 10 to 50 | > 70 | > 500 | < 30 | > 500 | 30 to 70 | – | – | – | – | – | – | – | –
4 | CCN(C)S(=O)(=O)Nc1cccc(-c2nc(C(C)(C)C)sc2-c2ccnc(Nc3ccc(N4CCN(C(=O)C5CCN(c6ccc(C7CCC(=O)NC7=O)cc6)CC5)CC4)cn3)n2)c1F (racemic) [Compound 36, Rac-(3S)-3-[4-(4-{4-[6-({4-[2-tert-butyl-4-(3-{[ethyl(methyl)sulfamoyl]amino}-2-fluorophenyl)-1,3-thiazol-5-yl]pyrimidin-2-yl}amino)pyridin-3-yl]piperazine-1-carbonyl}piperidin-1-yl)phenyl]piperidine-2,6-dione] | > 500 | < 30 | < 10 | > 70 | > 500 | 30 to 70 | 10 to 50 | 30 to 70 | – | – | – | – | – | – | – | –

The next lines start with the values.

Row | DC50 (BRAF G466V; [1]) [nM] | Dmax (BRAF G466V; [2]) [%] | DC50 (BRAF V600E; [3]) [nM] | Dmax (BRAF V600E; [4]) [%] | DC50 (BRAF D594G; [5]) [nM] | Dmax (BRAF D594G; [6]) [%] | DC50 (BRAF G469A; [7]) [nM] | Dmax (BRAF G469A; [8]) [%] | DC50 (BRAF G466V; [9]) [nM] | Dmax (BRAF G466V; [10]) [%] | DC50 (BRAF V600E; [11]) [nM] | Dmax (BRAF V600E; [12]) [%] | DC50 (BRAF D594G; [13]) [nM] | Dmax (BRAF D594G; [14]) [%] | DC50 (BRAF G469A; [15]) [nM] | Dmax (BRAF G469A; [16]) [%] | Compound
5 | 10 to 50 | 30 to 70 | 50 to 500 | > 70 | 10 to 50 | 30 to 70 | 10 to 50 | 30 to 70 | – | – | – | – | – | – | – | – | CCCS(=O)(=O)Nc1cccc(-c2cn(-c3ccc(N4CCN(CC5CCN(c6ccc([C@H]7CCC(=O)NC7=O)cn6)CC5)CC4)cc3)nc2-c2ccncc2)c1F [Compound 2, N-{3-[1-(4-{4-[(1-{5-[(3R)-2,6-dioxopiperidin-3-yl]pyridin-2-yl}piperidin-4-yl)methyl]piperazin-1-yl}phenyl)-3-(pyridin-4-yl)-1H-pyrazol-4-yl]-2-fluorophenyl}propane-1-sulfonamide]
6 | – | – | – | – | – | – | – | – | < 10 | > 70 | < 10 | > 70 | < 10 | > 70 | 10 to 50 | > 70 | CCC(C)S(=O)(=O)Nc1cc(Cl)cc(-c2cn(-c3ccc(N4CCN(CC5CCN(c6ccc([C@@H]7CCC(=O)NC7=O)cn6)CC5)CC4)cc3)nc2-c2ccncc2)c1F (mixture of isomers) [Compound 329, Rac-(R)—N-(5-chloro-3-(1-(4-(4-((1-(5-((S)-2,6-dioxopiperidin-3-yl)pyridin-2-yl)piperidin-4-yl)methyl)piperazin-1-yl)phenyl)-3-(pyridin-4-yl)-1H-pyrazol-4-yl)-2-fluorophenyl)butane-2-sulfonamide]
7 | – | – | – | – | – | – | – | – | < 10 | 30 to 70 | < 10 | > 70 | < 10 | 30 to 70 | 50 to 500 | 30 to 70 | O=C1CCN(c2ccc(N3CCC(CN4CCN(c5ccc(-n6cc(-c7cc(Cl)cc(NS(=O)(=O)N8CC[C@@H](F)C8)c7F)c(-c7ccncc7)n6)nc5)CC4)CC3)cc2)C(=O)N1 [Compound 295, (3R)—N-[5-chloro-3-(1-{5-[4-({1-[4-(2,4-dioxo-1,3-diazinan-1-yl)phenyl]piperidin-4-yl}methyl)piperazin-1-yl]pyridin-2-yl}-3-(pyridin-4-yl)-1H-pyrazol-4-yl)-2-fluorophenyl]-3-fluoropyrrolidine-1-sulfonamide]
